From patent publication US11116757B2 (priority 2015, dated 2021)

The compounds below were run against DCN1-UBC12 interaction (Homo sapiens (Human), UniProt Q96GG9) (assay: biochemical). Details: Table 4, commercial compounds; read-out: TR-FRET IC50.
Type: binding

DCN1-UBC12 interaction, sequence (Q96GG9 60-248 limits assumed): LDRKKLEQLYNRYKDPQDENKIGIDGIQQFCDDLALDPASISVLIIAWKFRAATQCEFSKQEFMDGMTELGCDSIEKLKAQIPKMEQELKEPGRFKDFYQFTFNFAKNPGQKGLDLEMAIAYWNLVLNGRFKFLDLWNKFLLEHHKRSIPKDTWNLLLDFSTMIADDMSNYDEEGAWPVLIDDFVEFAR

Row | SMILES | IC50 [µM]
1 | COc1ccc(C(=O)N2CCC(C(=O)Nc3cccc(C(F)(F)F)c3)CC2)cc1 [C1, 1-(4-Methoxybenzoyl)-N-(3-(Trifluoromethyl)Phenyl)Piperidine-4-Carboxamide] | 8.07
2 | O=C(Nc1cccc(C(F)(F)F)c1)C1CCN(C(=O)c2ccc(F)cc2)CC1 [C2] | 8.84
3 | O=C(Nc1cccc(Br)c1)C1CCN(C(=O)c2cccc(Cl)c2)CC1 [C3] | 22.4
4 | CSc1cccc(NC(=O)C2CCN(C(=O)c3ccc(F)cc3)CC2)c1 [C4] | 26.3
5 | CSc1cccc(NC(=O)C2CCN(C(=O)c3ccccc3C)CC2)c1 [C5] | 30.1
6 | Cc1ccc(NC(=O)C2CCN(C(=O)c3ccc(Cl)cc3)CC2)cc1Cl [C6] | 38.1
7 | O=C(Nc1ccc(Cl)c(C(F)(F)F)c1)C1CCN(C(=O)c2ccccc2Cl)CC1 [C7] | > 46
8 | COc1cccc(NC(=O)C2CCN(C(=O)c3cnn(-c4ccccc4)c3-n3cccc3)CC2)c1 [C8] | > 67.6
9 | CSc1cccc(NC(=O)C2CCN(C(=O)c3cnn(-c4ccccc4)c3-n3cccc3)CC2)c1 [C9] | > 76.7
10 | O=C(Nc1cccc(C(F)(F)F)c1)C1CCN(C(=O)c2cccc(F)c2)CC1 [C10] | > 42.9
11 | COc1ccc(C(=O)N2CCC(C(=O)Nc3cc(OC)ccc3OC)CC2)cc1 [C11] | > 48.7
12 | O=C(Nc1cccc(C(F)(F)F)c1)C1CCN(C(=O)Cc2ccccc2)CC1 [C12] | > 65.9
13 | O=C(Nc1ccc(C(F)(F)F)cc1)N1CCN(C/C=C/c2ccccc2)CC1 [C13] | > 66.3
14 | Cc1ccc(NC(=O)C2CCN(C(=O)c3ccccc3C)CC2)cc1Cl [C14] | > 67.6
15 | O=C(Nc1ccc(Cl)cc1Cl)C1CCN(C(=O)c2ccc(F)cc2)CC1 [C15] | > 67.6
16 | COc1ccc(C(=O)N2CCC(C(=O)Nc3ccc(F)c(Cl)c3)CC2)cc1 [C16] | > 67.6
17 | O=C(Nc1ccccc1Br)C1CCN(C(=O)c2ccccc2Cl)CC1 [C17] | > 67.6
18 | O=C(Nc1ccc(F)c(Cl)c1)C1CCN(C(=O)c2ccc(F)cc2)CC1 [C18] | > 67.6
19 | COc1ccc(C(=O)N2CCC(C(=O)Nc3cccc(C)c3C)CC2)cc1 [C19] | > 67.6
20 | O=C(Nc1ccc(Cl)c(C(F)(F)F)c1)C1CCN(C(=O)c2ccc(F)cc2)CC1 [C20] | > 67.6
21 | COc1ccc(NC(=O)C2CCN(C(=O)c3ccccc3C)CC2)c(OC)c1 [C21] | > 67.6
22 | Cc1ccc(NC(=O)C2CCN(C(=O)c3ccccc3C)CC2)cc1C [C22] | > 67.6
23 | COc1cc(C(=O)N2CCC(C(=O)Nc3ccc(Cl)cc3)CC2)cc(OC)c1OC [C23] | > 67.6
24 | COc1cc(C(=O)N2CCC(C(=O)Nc3ccc(Br)cc3)CC2)cc(OC)c1OC [C24] | > 67.6
25 | Cc1ccc(C(=O)N2CCC(C(=O)Nc3ccc(C)c(C)c3)CC2)cc1 [C25] | > 67.6

Row | SMILES | IC50 [µM]
26 | Cc1ccc(C(=O)N2CCC(C(=O)Nc3ccc(Cl)c(C(F)(F)F)c3)CC2)cc1 [C26] | > 67.6
27 | O=C(Nc1ccc(Cl)c(C(F)(F)F)c1)C1CCN(C(=O)c2ccc(Br)cc2)CC1 [C29] | > 67.6
28 | O=C(Nc1ccc(I)cc1)C1CCN(C(=O)c2ccco2)CC1 [C30] | > 67.6
29 | O=C(Nc1ccc(F)cc1)C1CCN(C(=O)c2ccco2)CC1 [C31] | > 67.6
30 | CCc1cccc(NC(=O)C2CCN(C(C)=O)CC2)c1 [C32] | > 67.6
31 | COc1ccc(OC)c(NC(=O)C2CCN(C(C)=O)CC2)c1 [C33] | > 67.6
32 | Cc1cc(C)n(-c2ccc(NC(=O)C3CCN(C(=O)CC(F)(F)F)CC3)cc2)n1 [C34] | > 67.6
33 | CC(=O)Nc1ccc(NC(=O)C2CCN(C(=O)c3cccs3)CC2)cc1 [C35] | > 67.6
34 | Cc1ccccc1C(=O)N1CCC(C(=O)Nc2c(F)cccc2F)CC1 [C36] | > 67.6
35 | CCc1cccc(C)c1NC(=O)C1CCN(C(=O)c2ccccc2Cl)CC1 [C37] | > 67.6
36 | Cc1cc(NC(=O)C2CCN(C(=O)c3ccco3)CC2)ccc1Br [C38] | > 67.6
37 | CC(=O)Nc1cccc(NC(=O)C2CCN(C(=O)c3ccco3)CC2)c1 [C39] | > 67.6
38 | O=C(Nc1ccc(Cl)c(Cl)c1)C1CCN(C(=O)c2ccco2)CC1 [C40] | > 67.6
39 | CC(=O)N1CCC(C(=O)Nc2cccc(C)c2C)CC1 [C41] | > 67.6
40 | COc1ccc(Cl)cc1NC(=O)C1CCN(C(=O)c2ccccc2F)CC1 [C42] | > 67.6
41 | COc1cccc(NC(=O)C2CCN(C(=O)c3cccc(F)c3)CC2)c1 [C43] | > 67.6
42 | Cc1cccc(NC(=O)C2CCN(C(=O)c3cccc(F)c3)CC2)c1 [C44] | > 67.6
43 | COCCC(=O)N1CCC(C(=O)Nc2ccc(-c3cc4ccccc4[nH]3)cc2)CC1 [C45] | > 67.6
44 | COCC(=O)N1CCC(C(=O)Nc2ccc(-c3cc4ccccc4[nH]3)cc2)CC1 [C46] | > 67.6
45 | CCOc1ccccc1NC(=O)C1CCN(C(=O)c2ccc(OC)cc2)CC1 [C47] | > 67.6
46 | CCOc1ccc(NC(=O)C2CCN(C(=O)c3ccccc3Cl)CC2)cc1 [C48] | > 67.6
47 | COc1ccc(NC(=O)C2CCN(C(=O)c3cnn(-c4ccccc4)c3-n3cccc3)CC2)cc1 [C49] | > 67.6
48 | O=C(Nc1cccc(F)c1)C1CCN(C(=O)c2cnn(-c3ccccc3)c2-n2cccc2)CC1 [C50] | > 67.6
49 | CC1CN(C(=O)N2CCC(C(=O)Nc3cccc(Cl)c3)CC2)c2ccccc2O1 (stereo not shown) [C51] | > 67.6
50 | CCc1ccc(NC(=O)C2CCN(C(=O)N3CC(C)Oc4ccccc43)CC2)cc1 (stereo not shown) [C52] | > 67.6

Same assay, conditions: read-out: TR-FRET IC50

Row | SMILES | IC50 [µM]
51 | CCN1CCC(N(Cc2ccco2)C(=O)Nc2ccc(OC)c(OC)c2)CC1 [B77] | > 67.6
52 | CCN1CCC(N(Cc2ccco2)C(=O)Nc2cc(Cl)ccc2C)CC1 [B78] | > 67.6
53 | CCN1CCC(N(Cc2ccco2)C(=O)Nc2ccc(OC)cc2)CC1 [B79] | > 67.6
54 | CCOc1ccc(NC(=O)N(Cc2ccco2)C2CCN(CC)CC2)cc1 [B80] | > 67.6
55 | COc1ccc(CN(C(=O)Nc2ccc(Cl)cc2)C2CCN(C(C)=O)CC2)cc1 [B81] | > 67.6
56 | COc1ccc(CN(C(=O)Nc2cc(C)ccc2C)C2CCN(C(C)=O)CC2)cc1 [B82] | > 67.6
57 | COc1ccc(CN(C(=O)Nc2ccc(C)cc2)C2CCN(C(C)=O)CC2)cc1 [B83] | > 67.6
58 | COc1ccc(CN(C(=O)Nc2ccccc2C)C2CCN(C(C)=O)CC2)cc1 [B84] | > 67.6
59 | COc1ccc(CN(C(=O)Nc2ccccc2C(F)(F)F)C2CCN(C(C)=O)CC2)cc1 [B85] | > 67.6
60 | COc1ccc(CN(C(=O)Nc2ccccc2F)C2CCN(C(C)=O)CC2)cc1 [B86] | > 67.6
61 | COc1ccc(CN(C(=O)Nc2cc(C)ccc2OC)C2CCN(C(C)=O)CC2)cc1 [B87] | > 67.6
62 | CCOc1ccccc1NC(=O)N(Cc1ccc(C)o1)C1CCN(C(C)=O)CC1 [B88] | > 67.6
63 | CC(=O)N1CCC(N(Cc2ccc(C)o2)C(=O)Nc2cc(Cl)ccc2Cl)CC1 [B89] | > 67.6
64 | COc1ccccc1NC(=O)N(Cc1ccc(C)o1)C1CCN(Cc2ccccc2)CC1 [B90] | > 67.6
65 | Cc1ccc(CN(C(=O)Nc2ccccc2Br)C2CCN(Cc3ccccc3)CC2)o1 [B91] | > 67.6
66 | CCOc1ccccc1NC(=O)N(Cc1ccc(C)o1)C1CCN(Cc2ccccc2)CC1 [B92] | > 67.6
67 | Cc1ccc(CN(C(=O)Nc2cc(F)ccc2F)C2CCN(Cc3ccccc3)CC2)o1 [B93] | > 67.6
68 | Cc1ccc(CN(C(=O)Nc2ccccc2F)C2CCN(Cc3ccccc3)CC2)o1 [B94] | > 67.6
69 | COc1ccc(C)cc1NC(=O)N(Cc1ccc(C)o1)C1CCN(Cc2ccccc2)CC1 [B95] | > 67.6
70 | COc1ccccc1NC(=O)N(CCCN1CCC(C)CC1)C1CCN(C(C)=O)CC1 [B96] | > 67.6
71 | CCN1CCC(N(Cc2ccc(F)cc2)C(=O)Nc2ccccc2Cl)CC1 [B97] | > 67.6
72 | O=C(Nc1cccc(I)c1)NC1CCN(Cc2ccccc2)CC1 [B98] | > 67.6
73 | COC(=O)[C@@H]1C[C@@H](NC(=O)Nc2ccccc2)CN1Cc1ccccc1C(F)(F)F [B99] | > 68
74 | CN1CCC(NC(=O)Nc2cccc(C(F)(F)F)c2)CC1 [B100] | > 68.1

Row | SMILES | IC50 [µM]
75 | O=C(Nc1cc(C(F)(F)F)ccc1Cl)NC1CCN(Cc2ccccc2)CC1 [B101] | > 69.8
76 | CC(=O)c1cccc(NC(=O)NC2CCN(Cc3ccccc3)CC2)c1 [B102] | > 70.6
77 | O=C(Nc1ccccc1C(F)(F)F)NC1CCN(Cc2ccccc2)CC1 [B103] | > 70.7
78 | CCN1CCC(N(Cc2ccco2)C(=O)Nc2ccc(F)c(Cl)c2)CC1 [B104] | > 70.9
79 | O=C(Nc1ccc(CN2CCCC2)cc1)Nc1cccc(C(F)(F)F)c1 [B105] | > 71.3
80 | CC1CC(N(C)C(=O)Nc2ccccn2)CCN1Cc1ccccc1 (stereo not shown) [B106] | > 71.5
81 | COc1ccccc1N1CCN(CC(=O)Nc2cccc(C(F)(F)F)c2)CC1 [B107] | > 72.3
82 | O=C(Nc1ccc(CN2CCOCC2)cc1)Nc1cccc(C(F)(F)F)c1 [B108] | > 72.8
83 | CN(C)c1ncncc1NC(=O)NC1CCN(Cc2ccc(F)cc2)CC1 [B109] | > 72.8
84 | O=C(Nc1cccc(Cl)c1)NC1CCN(Cc2ccccc2)CC1 [B110] | > 73.1
85 | Cc1cccc(NC(=O)NC2CCN(C(=O)c3ccccc3)CC2)c1 [B111] | > 73.2
86 | O=C(Nc1ccc(C(=O)N2CCCC2)cc1)Nc1cccc(C(F)(F)F)c1 [B112] | > 73.5
87 | O=C(CN1CCN(Cc2ccccc2)CC1)Nc1cc(C(F)(F)F)ccc1Cl [B113] | > 74
88 | O=C(Nc1ccc2c(c1)OC(F)(F)O2)NC1CCN(C(=O)c2ccccc2)CC1 [B114] | > 74.1
89 | O=C(Nc1ccc2c(c1)OCCO2)N(Cc1ccco1)C1CCN(Cc2ccccc2)CC1 [B115] | > 74.6
90 | O=C(Nc1cccc(C(F)(F)F)c1)N1CCN(Cc2cccnc2)CC1 [B116] | > 74.8
91 | CCCN1CCC(NC(=O)Nc2cccc(Cl)c2)CC1 [B117] | > 77.1
92 | O=C(CN1CCC(Cc2ccccc2)CC1)Nc1cc(C(F)(F)F)cc(C(F)(F)F)c1 [B118] | > 78.5
93 | Cc1cc(NC(=O)NC2CCN(Cc3ccccc3)CC2)c(C(F)(F)F)o1 [B119] | > 79
94 | O=C(Nc1ccncc1[NH2+][O-])NC1CCN(Cc2ccccc2)CC1 [B120] | > 79.1
95 | Cc1cc(NC(=O)NC2C(C)CN(Cc3ccccc3)CC2C)no1 (stereo not shown) [B121] | > 81.9
96 | O=C(Nc1ccc2c(c1)C(=O)NCC2)NC1CCN(Cc2ccccc2)CC1 [B122] | > 84.8
97 | FC(F)(F)c1ccnc(NC2CCN(Cc3ccccc3)CC2)n1 [B124] | > 90.4
